Experimental findings from ChEMBL document CHEMBL4190187, “Discovery of pyrazolopyrimidine derivatives as novel inhibitors of ataxia telangiectasia and rad3 related protein (ATR)” (Bioorg Med Chem Lett, 2017) are described below.

Series [1] in a line: Metabolic stability in mouse liver microsomes assessed as compound remaining at 1 uM in presence of NADPH as cofactor measured after 30 mins by LC-MS/MS method. As to conditions: read-out: Stability. The series is classed as ADME, microsome. (In general: Liver microsomes are vesicles of endoplasmic reticulum, rich in cytochrome P450 enzymes.)
In series [2] the target is CDK9/cyclin T1 (Homo sapiens) (UniProt O60563+P50750). Description: Inhibition of recombinant full-length human CDK9/Cyclin T1 at 1 uM using KTFCGTPEYLAPEVRREPRILSEEEQEMFRDFDYIADWC as substrate after 40 mins in presence of [gamma-33P]ATP by scintillation counting method. The class given is protein-complex assay.
Series [3] concerns the target Proto-oncogene tyrosine-protein kinase Src (Homo sapiens) (UniProt P12931). The experiment in a line: Inhibition of recombinant full-length human cSRC at 1 uM using KVEKIGEGTYGVVYK (Cdc2 peptide) as substrate after 40 mins in presence of [gamma-33P]ATP by scintillation counting method.
Series [4] deals with Death-associated protein kinase 2 (Homo sapiens) (UniProt Q9UIK4). Description: Inhibition of recombinant full-length human DAPK2 at 1 uM using […] after 40 mins in presence of [gamma-33P]ATP by scintillation counting method.
In series [5] the target is Dual specificity tyrosine-phosphorylation-regulated kinase 1A (Homo sapiens) (UniProt Q13627). Description: Inhibition of recombinant full-length human DYRK1A at 1 uM using RRRFRPASPLRGPPK as substrate after 40 mins in presence of [gamma-33P]ATP by scintillation counting method.
Series [6] concerns Epidermal growth factor receptor (Homo sapiens), P00533 [L861Q]. The experiment in a line: Inhibition of recombinant human EGFR L861Q mutant (696 to end residues) at 1 uM using poly(Glu,Tyr) 4:1 as substrate after 40 mins in presence of [gamma-33P]ATP by scintillation counting method.
Series [7] addresses Fibroblast growth factor receptor 1 (Homo sapiens) (UniProt P11362). The experiment in a line: Inhibition of recombinant human FGFR1 (456 to 765 residues) at 1 uM using KKKSPGEYVNIEFG as substrate after 40 mins in presence of [gamma-33P]ATP by scintillation counting method.
In series [8] the test system is Fibroblast growth factor receptor 1 (Homo sapiens), P11362 [V561M]. The experiment in a line: Inhibition of recombinant human FGFR1 V561M mutant (456 to 765 residues) at 1 uM using GGEEEEYFELVKKKK as substrate after 40 mins in presence of [gamma-33P]ATP by scintillation counting method.
In series [9] the test system is Fibroblast growth factor receptor 2 (Homo sapiens), P21802 [N549H]. Description: Inhibition of recombinant human FGFR2 N549H mutant (456 to 770 residues) at 1 uM using GGEEEEYFELVKKKK as substrate after 40 mins in presence of [gamma-33P]ATP by scintillation counting method.
Series [10] concerns the target Tyrosine-protein kinase Lck (Homo sapiens) (UniProt P06239). The experiment in a line: Inhibition of recombinant full-length human activated Lck at 1 uM using KVEKIGEGTYGVVYK as substrate after 40 mins in presence of [gamma-33P]ATP by scintillation counting method.
For series [11], the target named is Dual specificity mitogen-activated protein kinase kinase 1 (Homo sapiens) (UniProt Q02750). Description: Inhibition of recombinant full-length human MEK1 at 1 uM using inactive MAPK2 as substrate after 40 mins in presence of [gamma-33P]ATP by scintillation counting method.
Series [12] has as its target Mitogen-activated protein kinase kinase kinase 2 (Homo sapiens) (UniProt Q9Y2U5). The experiment in a line: Inhibition of recombinant full-length human MEKK2 at 1 uM using myelin basic protein as substrate after 40 mins in presence of [gamma-33P]ATP by scintillation counting method.
Series [13] addresses Misshapen-like kinase 1 (Homo sapiens) (UniProt Q8N4C8). The experiment in a line: Inhibition of recombinant human MINK (1 to 310 residues) at 1 uM using myelin basic protein as substrate after 40 mins in presence of [gamma-33P]ATP by scintillation counting method.
For series [14], the target named is Serine/threonine-protein kinase NIM1 (Homo sapiens) (UniProt Q8IY84). The experiment in a line: Inhibition of recombinant full-length human NIM1 at 1 uM using KKKVSRSGLYRSPSMPENLNRPR as substrate after 40 mins in presence of [gamma-33P]ATP by scintillation counting method.
For series [15], the target named is PI3K p110 alpha/p85 alpha (Mus musculus) (UniProt P26450+P42337). Description: Inhibition of recombinant full-length mouse p110a E545K mutant/p85a at 1 uM using phosphatidylinositol 4,5-bisphosphate as substrate after 40 mins in presence of [gamma-33P]ATP by scintillation counting method. The class given is protein-complex assay.
The target of series [16] is PI3K p110 beta/p85 beta (Mus musculus) (UniProt Q8BTI9+O08908). Description: Inhibition of recombinant full-length mouse p110b/p85b at 1 uM using phosphatidylinositol 4,5-bisphosphate as substrate after 40 mins in presence of [gamma-33P]ATP by scintillation counting method. The class given is protein-complex assay.
Series [17] has as its target Phosphatidylinositol 4,5-bisphosphate 3-kinase catalytic subunit gamma isoform (Homo sapiens) (UniProt P48736). The experiment in a line: Inhibition of recombinant full-length human p120g at 1 uM using phosphatidylinositol-4,5-bisphosphate as substrate after 40 mins in presence of [gamma-33P]ATP by scintillation counting method.
In series [18] the target is Phosphatidylinositol 4-phosphate 5-kinase type-1 gamma (Homo sapiens) (UniProt O60331). The experiment in a line: Inhibition of recombinant full-length human PIP5K1gamma at 1 uM using phosphatidylinositol 4-phosphate/phosphatidylserine as substrate after 40 mins in presence of [gamma-33P]ATP by scintillation counting method.
The target of series [19] is Protein kinase C beta type (Homo sapiens) (UniProt P05771). The experiment in a line: Inhibition of recombinant human PKCbeta2 (2 to end residues) at 1 uM using histone H1 as substrate after 40 mins in presence of [gamma-33P]ATP by scintillation counting method.
The target in series [20] is Protein kinase C epsilon type (Homo sapiens) (UniProt Q02156). Description: Inhibition of recombinant human PKCepsilon (2 to end residues) at 1 uM using ERMRPRKRQGSVRRRV as substrate after 40 mins in presence of [gamma-33P]ATP by scintillation counting method.
For series [21], the target named is Serine/threonine-protein kinase Sgk3 (Homo sapiens) (UniProt Q96BR1). Description: Inhibition of recombinant human SGK3 (119 to end residues) at 1 uM using GRPRTSSFAEGKK as substrate after 40 mins in presence of [gamma-33P]ATP by scintillation counting method.
Series [22] concerns the target BDNF/NT-3 growth factors receptor (Homo sapiens) (UniProt Q16620). The experiment in a line: Inhibition of recombinant human TrkB (455 to end residues) at 1 uM using poly(Glu,Tyr) 4:1 as substrate after 40 mins in presence of [gamma-33P]ATP by scintillation counting method.
For series [23], the target named is Testis-specific serine/threonine-protein kinase 1 (Homo sapiens) (UniProt Q9BXA7). Description: Inhibition of recombinant full-length human TSSK1 at 1 uM using KKKVSRSGLYRSPSMPENLNRPR as substrate after 40 mins in presence of [gamma-33P]ATP by scintillation counting method.

Each structure is given as a SMILES string.

Sequence of Phosphatidylinositol 4-phosphate 5-kinase type-1 gamma (Homo sapiens) (O60331 whole entry): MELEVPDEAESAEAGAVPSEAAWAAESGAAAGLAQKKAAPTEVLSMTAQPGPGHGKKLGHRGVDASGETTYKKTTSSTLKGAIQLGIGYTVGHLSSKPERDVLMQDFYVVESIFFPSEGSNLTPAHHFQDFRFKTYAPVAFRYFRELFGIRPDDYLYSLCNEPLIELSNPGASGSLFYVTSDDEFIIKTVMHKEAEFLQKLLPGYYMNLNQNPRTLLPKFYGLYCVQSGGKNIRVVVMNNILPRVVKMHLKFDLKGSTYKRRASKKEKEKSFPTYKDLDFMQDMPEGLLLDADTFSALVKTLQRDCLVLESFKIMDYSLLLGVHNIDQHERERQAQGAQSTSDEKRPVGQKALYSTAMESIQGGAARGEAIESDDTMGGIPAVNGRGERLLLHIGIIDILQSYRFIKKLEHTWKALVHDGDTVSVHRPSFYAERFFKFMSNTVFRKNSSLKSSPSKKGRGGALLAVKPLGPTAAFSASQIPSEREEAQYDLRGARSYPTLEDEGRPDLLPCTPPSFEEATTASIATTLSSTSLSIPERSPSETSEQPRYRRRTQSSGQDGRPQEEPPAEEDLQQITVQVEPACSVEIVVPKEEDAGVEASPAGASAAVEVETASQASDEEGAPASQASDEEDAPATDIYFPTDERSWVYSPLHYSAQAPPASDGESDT
Sequence of Fibroblast growth factor receptor 2 (Homo sapiens), P21802 [N549H] (P21802 whole entry N549H, the tested form may be a part): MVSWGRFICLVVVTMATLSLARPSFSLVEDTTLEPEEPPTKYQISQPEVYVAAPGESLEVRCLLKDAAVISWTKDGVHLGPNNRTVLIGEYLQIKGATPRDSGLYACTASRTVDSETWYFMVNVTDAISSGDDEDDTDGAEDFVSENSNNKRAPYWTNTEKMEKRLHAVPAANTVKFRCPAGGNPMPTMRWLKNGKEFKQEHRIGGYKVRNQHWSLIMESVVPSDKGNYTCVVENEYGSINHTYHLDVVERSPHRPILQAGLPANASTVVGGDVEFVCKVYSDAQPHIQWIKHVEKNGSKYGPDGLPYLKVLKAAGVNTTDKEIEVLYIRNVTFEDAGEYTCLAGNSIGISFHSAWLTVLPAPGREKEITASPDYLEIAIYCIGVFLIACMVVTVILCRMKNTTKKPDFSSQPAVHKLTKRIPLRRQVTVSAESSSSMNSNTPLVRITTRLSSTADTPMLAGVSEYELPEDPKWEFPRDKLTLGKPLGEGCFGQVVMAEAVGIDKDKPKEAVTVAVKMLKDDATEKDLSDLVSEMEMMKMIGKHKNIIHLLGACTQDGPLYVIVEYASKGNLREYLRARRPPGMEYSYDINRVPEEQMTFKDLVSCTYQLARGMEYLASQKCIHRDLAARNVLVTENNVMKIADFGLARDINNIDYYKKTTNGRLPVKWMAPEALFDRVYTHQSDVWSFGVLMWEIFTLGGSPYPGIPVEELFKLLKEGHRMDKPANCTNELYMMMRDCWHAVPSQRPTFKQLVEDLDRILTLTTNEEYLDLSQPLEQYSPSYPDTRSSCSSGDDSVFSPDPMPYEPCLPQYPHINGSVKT
Sequence of Testis-specific serine/threonine-protein kinase 1 (Homo sapiens) (Q9BXA7 whole entry): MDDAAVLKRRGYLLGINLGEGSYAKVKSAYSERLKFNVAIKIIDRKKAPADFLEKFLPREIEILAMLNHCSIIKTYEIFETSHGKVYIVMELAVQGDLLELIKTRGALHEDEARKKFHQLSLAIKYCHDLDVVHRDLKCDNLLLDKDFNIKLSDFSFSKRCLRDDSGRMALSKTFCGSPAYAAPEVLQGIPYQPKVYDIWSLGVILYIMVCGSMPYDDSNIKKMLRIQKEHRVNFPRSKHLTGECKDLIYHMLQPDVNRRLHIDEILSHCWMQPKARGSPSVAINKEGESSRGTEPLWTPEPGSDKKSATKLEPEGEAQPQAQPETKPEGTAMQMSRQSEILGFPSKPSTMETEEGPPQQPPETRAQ
Sequence of BDNF/NT-3 growth factors receptor (Homo sapiens) (Q16620 32-822 limits assumed): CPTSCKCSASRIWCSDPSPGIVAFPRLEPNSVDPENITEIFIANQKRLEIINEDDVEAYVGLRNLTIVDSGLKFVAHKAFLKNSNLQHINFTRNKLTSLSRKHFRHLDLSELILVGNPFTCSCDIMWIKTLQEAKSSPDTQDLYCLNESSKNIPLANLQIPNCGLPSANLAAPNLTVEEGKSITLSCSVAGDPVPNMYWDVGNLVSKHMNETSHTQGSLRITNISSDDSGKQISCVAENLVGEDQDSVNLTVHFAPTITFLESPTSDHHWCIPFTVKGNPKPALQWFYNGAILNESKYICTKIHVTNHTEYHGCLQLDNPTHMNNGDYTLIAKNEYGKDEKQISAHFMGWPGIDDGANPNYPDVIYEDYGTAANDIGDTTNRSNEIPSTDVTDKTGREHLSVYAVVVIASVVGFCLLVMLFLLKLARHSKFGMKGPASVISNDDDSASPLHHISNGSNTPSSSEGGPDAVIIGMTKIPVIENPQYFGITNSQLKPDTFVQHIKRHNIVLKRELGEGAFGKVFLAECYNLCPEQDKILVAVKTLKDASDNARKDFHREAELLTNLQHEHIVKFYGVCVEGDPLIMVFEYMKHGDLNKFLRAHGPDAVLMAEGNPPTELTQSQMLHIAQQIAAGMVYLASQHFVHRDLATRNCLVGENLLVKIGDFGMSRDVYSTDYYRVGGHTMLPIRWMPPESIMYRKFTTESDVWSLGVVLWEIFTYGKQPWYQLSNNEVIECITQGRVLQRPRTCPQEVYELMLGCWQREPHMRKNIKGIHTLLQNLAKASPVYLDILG
Sequence of Misshapen-like kinase 1 (Homo sapiens) (Q8N4C8 whole entry, looked up, the tested form may be a part): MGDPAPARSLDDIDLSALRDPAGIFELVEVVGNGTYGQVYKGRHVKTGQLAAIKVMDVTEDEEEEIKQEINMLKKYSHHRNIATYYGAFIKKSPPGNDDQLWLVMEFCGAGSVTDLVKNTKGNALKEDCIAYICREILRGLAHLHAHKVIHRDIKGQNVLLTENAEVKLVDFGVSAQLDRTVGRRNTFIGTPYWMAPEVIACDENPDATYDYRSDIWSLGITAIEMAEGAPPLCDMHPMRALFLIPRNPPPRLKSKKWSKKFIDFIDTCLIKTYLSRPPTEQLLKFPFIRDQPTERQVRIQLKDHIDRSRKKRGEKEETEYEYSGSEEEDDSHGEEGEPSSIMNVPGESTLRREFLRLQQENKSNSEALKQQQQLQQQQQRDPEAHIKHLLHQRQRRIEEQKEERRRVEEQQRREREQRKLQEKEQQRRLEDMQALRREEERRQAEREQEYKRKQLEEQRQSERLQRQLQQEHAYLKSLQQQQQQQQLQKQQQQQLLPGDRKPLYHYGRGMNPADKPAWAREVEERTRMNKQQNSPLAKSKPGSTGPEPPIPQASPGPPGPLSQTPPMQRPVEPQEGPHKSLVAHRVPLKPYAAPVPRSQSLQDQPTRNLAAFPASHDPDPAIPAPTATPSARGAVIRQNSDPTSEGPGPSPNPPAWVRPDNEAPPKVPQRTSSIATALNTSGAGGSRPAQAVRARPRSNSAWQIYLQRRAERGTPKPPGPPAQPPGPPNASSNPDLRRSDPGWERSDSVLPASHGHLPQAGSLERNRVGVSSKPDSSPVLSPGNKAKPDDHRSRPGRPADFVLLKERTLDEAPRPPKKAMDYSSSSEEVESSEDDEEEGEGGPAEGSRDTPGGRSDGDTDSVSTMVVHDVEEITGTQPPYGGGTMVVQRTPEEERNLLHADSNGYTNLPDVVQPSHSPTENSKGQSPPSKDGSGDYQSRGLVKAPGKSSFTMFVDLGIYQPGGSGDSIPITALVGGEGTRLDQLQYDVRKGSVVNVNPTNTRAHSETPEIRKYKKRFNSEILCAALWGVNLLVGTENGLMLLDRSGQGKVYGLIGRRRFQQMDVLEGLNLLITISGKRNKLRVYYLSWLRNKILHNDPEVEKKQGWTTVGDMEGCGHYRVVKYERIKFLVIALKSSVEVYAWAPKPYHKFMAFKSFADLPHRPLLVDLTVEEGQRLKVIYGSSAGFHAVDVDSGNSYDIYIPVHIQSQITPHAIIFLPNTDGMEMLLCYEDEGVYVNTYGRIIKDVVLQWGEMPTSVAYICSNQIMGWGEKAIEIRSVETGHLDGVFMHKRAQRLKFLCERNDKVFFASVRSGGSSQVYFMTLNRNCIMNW
Sequence of Protein kinase C beta type (Homo sapiens) (P05771 2-671 limits assumed): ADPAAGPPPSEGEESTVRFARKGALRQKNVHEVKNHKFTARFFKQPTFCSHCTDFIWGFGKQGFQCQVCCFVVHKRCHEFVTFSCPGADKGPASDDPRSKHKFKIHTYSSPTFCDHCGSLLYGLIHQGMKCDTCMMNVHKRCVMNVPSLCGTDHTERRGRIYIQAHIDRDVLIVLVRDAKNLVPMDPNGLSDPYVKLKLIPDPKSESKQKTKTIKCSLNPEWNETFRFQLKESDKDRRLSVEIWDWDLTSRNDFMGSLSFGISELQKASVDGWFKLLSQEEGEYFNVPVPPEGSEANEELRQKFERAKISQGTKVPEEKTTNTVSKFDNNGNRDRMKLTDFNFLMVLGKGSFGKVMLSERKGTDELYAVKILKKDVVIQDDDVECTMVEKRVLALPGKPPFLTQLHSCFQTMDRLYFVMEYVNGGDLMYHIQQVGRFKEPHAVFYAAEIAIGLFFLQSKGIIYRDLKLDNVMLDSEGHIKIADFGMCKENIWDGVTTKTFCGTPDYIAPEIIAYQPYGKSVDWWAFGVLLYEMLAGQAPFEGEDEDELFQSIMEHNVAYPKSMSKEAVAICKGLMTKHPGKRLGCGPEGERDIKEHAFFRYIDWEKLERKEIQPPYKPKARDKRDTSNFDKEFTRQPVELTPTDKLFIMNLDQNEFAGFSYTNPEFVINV
Sequence of Death-associated protein kinase 2 (Homo sapiens) (Q9UIK4 whole entry, looked up): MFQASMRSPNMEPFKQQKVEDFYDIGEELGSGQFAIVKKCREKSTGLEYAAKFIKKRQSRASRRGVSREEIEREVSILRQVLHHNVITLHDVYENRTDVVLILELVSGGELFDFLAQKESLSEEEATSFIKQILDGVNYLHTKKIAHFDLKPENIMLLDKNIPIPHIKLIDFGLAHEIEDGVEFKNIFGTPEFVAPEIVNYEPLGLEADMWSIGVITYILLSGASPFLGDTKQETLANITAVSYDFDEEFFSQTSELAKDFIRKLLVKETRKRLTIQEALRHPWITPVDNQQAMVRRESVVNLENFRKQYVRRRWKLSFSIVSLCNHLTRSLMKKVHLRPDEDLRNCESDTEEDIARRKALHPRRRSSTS

For the compound `CS(=O)(=O)c1ccc(-n2nc(-c3cnc4[nH]ccc4c3)c3c(N)ncnc32)cc1`, in [1], the remaining at 0.5 h, 1 µM was 79%. The inhibition was 7% in series [2]; 53% in [3]; 4% in series [4]; -6% in [5]; 31% in [6]; 63% in series [7]. Also, the inhibition in series [8] is 12%; in series [9], 70%; in series [10], 38%; in series [11], -1%; in series [12] it was 5%; in series [13], -10%. In addition, the inhibition in series [14] was -5%; in series [15] it was 11%; in series [16], 1%; in [17] it was 10%; in [18] it was 3%; in [19], -4%. Further, the inhibition is 2% in [20], 12% in series [21], 4% in series [22] and -8% in series [23].

The term inhibition denotes the relative decrease from the control value, in per cent.
